# Assay results reported in ChEMBL document CHEMBL1201862, “PubChem BioAssay data set” (2004).
# Active and inactive are the calls of the source.
# Columns and labels:
# HEK293 = assay: cells; assay type: functional, cell-based; conditions: Homo sapiens
# [1] = target: T1, Nuclear receptor subfamily 0 group B member 1 (Homo sapiens, UniProt P51843); assay: Luminescence-based cell-based high throughput dose response assay for inhibitors of the orphan nuclear receptor subfamily 0, group B, member 1 (DAX1; NR0B1). [Related pubchem assays (depositor defined):AID504766, AID504790]; assay type: functional
# T1 sequence (P51843 whole entry): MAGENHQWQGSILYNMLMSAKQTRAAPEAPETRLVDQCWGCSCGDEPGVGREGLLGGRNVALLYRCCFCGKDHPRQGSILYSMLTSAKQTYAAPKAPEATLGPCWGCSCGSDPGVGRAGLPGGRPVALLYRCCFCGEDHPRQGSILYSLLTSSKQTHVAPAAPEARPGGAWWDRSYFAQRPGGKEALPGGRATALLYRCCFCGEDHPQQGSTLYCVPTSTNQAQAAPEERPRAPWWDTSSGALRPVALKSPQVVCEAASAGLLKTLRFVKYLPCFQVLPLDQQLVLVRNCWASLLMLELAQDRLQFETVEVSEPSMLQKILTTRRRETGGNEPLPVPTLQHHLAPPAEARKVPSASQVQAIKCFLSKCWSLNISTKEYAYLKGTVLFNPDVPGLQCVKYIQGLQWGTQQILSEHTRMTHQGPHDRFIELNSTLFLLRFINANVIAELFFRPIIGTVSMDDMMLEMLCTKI
# [2] = target: Beta-2 adrenergic receptor (Homo sapiens, UniProt P07550); assay: beta2AR agonists driving receptor internalization, dose response, cell-based, FAP fluorogen, flow cytometry, cherry pick 1 (AID 588763); assay type: functional
# Cytochrome P450 1A2 = target: T2, Cytochrome P450 1A2 (Homo sapiens, UniProt P05177);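 note: PubChem cytochrome P450 panel assay, CYP1A2 panel member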
# T2 sequence (P05177 whole entry): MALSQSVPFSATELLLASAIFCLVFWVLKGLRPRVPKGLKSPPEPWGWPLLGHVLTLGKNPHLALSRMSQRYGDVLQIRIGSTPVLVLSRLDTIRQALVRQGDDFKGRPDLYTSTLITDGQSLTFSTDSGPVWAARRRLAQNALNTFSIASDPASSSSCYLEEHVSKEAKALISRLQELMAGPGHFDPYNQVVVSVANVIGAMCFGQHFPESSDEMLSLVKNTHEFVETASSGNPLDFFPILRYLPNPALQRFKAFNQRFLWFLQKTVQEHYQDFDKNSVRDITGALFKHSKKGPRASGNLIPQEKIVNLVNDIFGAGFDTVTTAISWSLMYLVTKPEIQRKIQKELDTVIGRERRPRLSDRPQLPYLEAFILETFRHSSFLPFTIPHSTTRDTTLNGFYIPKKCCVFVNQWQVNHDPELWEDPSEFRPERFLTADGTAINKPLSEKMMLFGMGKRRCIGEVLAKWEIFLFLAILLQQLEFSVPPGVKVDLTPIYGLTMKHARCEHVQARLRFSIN
# Cytochrome P450 2C9 = Cytochrome P450 2C9 (Homo sapiens, UniProt P11712)
# Leucine aminopeptidase = target: T3, Leucine aminopeptidase (Plasmodium falciparum 3D7, UniProt Q8IL11); assay: P. falciparum M17LAP inhibitors, primary screen, biochemical, fluorogenic H-Leu-NHMec substrate, 1536-well (AID 1619); assay type: functional
# T3 sequence (Q8IL11 whole entry): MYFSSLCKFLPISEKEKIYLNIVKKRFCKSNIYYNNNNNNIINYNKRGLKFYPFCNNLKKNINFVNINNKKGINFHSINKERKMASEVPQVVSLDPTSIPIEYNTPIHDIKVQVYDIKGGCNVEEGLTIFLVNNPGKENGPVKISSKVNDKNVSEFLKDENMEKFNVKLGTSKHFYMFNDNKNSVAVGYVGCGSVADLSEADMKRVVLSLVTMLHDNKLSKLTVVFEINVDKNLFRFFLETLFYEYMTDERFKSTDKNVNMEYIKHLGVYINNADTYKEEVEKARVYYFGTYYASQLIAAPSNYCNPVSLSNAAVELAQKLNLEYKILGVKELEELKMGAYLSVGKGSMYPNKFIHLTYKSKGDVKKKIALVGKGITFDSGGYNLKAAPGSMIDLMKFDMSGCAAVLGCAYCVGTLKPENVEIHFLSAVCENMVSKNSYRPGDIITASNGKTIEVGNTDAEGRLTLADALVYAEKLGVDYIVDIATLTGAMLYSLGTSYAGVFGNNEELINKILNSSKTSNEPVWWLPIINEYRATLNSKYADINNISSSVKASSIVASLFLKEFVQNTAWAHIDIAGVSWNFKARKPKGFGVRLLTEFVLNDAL
# [3] = inhibitors of firefly luciferase expression or activity, dose response, H4 neuroglioma cells, luminescence (AID 1990); assay type: functional, cell-based
# [4] = system: Streptococcus sp. 'group A'; assay: growth inhibition of control SK(-) GAS strain, dose response, counter-screen for streptokinase expression inhibitor project, luminescence, kanamycin, BacTiterGlo, confirmation (AID 1900); assay type: functional, organism-based
# [5] = Luminescence Cell-Based Dose Response HTS to Identify Inhibitors of 5'UTR Stem-Loop Driven Prion Protein mRNA Translation in H4 Neuroglioblastoma Cells. [Related pubchem assays: 1827 (Project Summary), 1813 (Primary HTS)]; assay type: functional
# [6] = inhibitors of SNCA 5'UTR-driven reporter translation, confirmation, H4 neuroglioma cells, luminescence (AID 1988); assay type: functional, cell-based
# Streptokinase A = target: T4, Streptokinase A (Streptococcus pyogenes serotype M1, UniProt P10520); assay: S. pyogenes streptokinase expression inhibitors, potency, dose response, plasminogen activation absorbance, OD405 (AID 1914); assay type: functional, Streptococcus pyogenes M1 GAS;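 note: secreted streptokinase activity via plasminogen activation per viability signal from cell pellet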
# T4 sequence (P10520 whole entry): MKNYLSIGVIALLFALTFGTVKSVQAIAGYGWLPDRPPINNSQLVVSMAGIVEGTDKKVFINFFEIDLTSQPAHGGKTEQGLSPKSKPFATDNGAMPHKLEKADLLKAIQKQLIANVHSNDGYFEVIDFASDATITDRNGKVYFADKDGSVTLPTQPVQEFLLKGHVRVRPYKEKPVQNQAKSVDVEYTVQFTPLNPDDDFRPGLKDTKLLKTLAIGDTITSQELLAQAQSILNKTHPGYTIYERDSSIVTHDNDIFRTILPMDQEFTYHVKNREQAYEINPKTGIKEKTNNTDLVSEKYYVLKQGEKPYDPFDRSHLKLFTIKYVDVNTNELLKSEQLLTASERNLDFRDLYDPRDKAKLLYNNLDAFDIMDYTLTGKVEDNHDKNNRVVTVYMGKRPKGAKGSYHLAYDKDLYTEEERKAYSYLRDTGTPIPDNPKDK
# Streptococcus = assay: Group A Streptococcus viability loss, dose response, counter-screen for streptokinase expression inhibitor project, luminescence, BacTiterGlo (AID 1915); assay type: functional, organism-based;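 note: potency for reduction of bacterial viability or growth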
# [7] = target: T5, Microphthalmia-associated transcription factor (Homo sapiens, UniProt O75030); assay: TRPM1 promoter luciferase signal decrease, dose response, MITF inhibitor project, cell-based, SK-MEL-5, cherry-picked, set 3 (AID 493073); assay type: functional
# T5 sequence (O75030 whole entry): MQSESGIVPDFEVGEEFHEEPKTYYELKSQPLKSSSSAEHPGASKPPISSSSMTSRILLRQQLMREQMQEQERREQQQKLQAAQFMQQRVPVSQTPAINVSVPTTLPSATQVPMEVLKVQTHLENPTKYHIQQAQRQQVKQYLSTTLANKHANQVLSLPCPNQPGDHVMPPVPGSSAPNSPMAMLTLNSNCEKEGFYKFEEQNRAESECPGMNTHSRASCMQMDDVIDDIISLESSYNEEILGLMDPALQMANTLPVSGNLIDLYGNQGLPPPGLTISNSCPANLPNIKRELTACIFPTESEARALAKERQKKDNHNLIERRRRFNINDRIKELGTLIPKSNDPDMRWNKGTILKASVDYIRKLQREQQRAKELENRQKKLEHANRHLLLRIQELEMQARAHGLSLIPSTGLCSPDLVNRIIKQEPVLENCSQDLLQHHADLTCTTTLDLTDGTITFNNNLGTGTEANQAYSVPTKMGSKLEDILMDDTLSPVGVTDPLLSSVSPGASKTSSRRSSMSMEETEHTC
# CHO = assay: cytotoxicity in TLR9-MyD88 CHO cells, dose response, cytotoxicity control for TLR9-MyD88 binding inhibitor project, cell-based, luminescence (AID 588339); assay type: functional, hamster; conditions: Cricetulus griseus;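 note: CHO cells stably coexpressing TLR9 and MyD88 fusions from primary screen; compound exposure lasted 48 hours before viability readout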
# Beta Lactamase = Beta Lactamase (Pseudomonas aeruginosa, UniProt Q932Y6); assay: beta-lactamase reporter inhibitor potency, dose response, artefact control for TLR9-MyD88 binding inhibitor project, BLA reporter cells, FRET fluorescence (AID 588341); assay type: cell-based;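 note: cell based assay in CHO-K1 cells stably expressing beta-lactamase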
# INS1 = assay: beta cell apoptosis inhibitors, cytokine rescue, dose response, luminescence, retest (AID 449756); assay type: functional, cell-based; conditions: Rattus norvegicus;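 note: cell death triggered by IL-1 beta plus TNF-alpha plus IFN-gamma mixture; protective hits raise ATP signal compared with cytokine alone wells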
# A-375 = assay: A375 melanoma cell viability reduction, dose response, counter-screen for MITF modulator project, cherry-pick samples, set 2 (AID 540335); assay type: functional, cell-based; conditions: Homo sapiens
# [8] = Shn3 3'UTR reporter inhibitors, dose response, cell-based, Clone20 osteoblasts, firefly luciferase, cherry-picked (AID 624132); assay type: functional;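 note: firefly luciferase luminescence from reporter carrying the Shn3 3'UTR in osteoblasts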
# [9] = HepG2 cell cytotoxicity, dose response, cytotoxicity control for Shn3 inhibitor project, CellTiter-Glo, cherry-picked (AID 624134); assay type: functional, cell-based
# [10] = control 3'UTR Renilla luciferase suppression, dose response, counter-screen for Shn3 inhibitor project, cell-based, Clone20-Shn3RL, cherry-picked (AID 624133); assay type: functional
# Sequence of Beta-2 adrenergic receptor (P07550 whole entry): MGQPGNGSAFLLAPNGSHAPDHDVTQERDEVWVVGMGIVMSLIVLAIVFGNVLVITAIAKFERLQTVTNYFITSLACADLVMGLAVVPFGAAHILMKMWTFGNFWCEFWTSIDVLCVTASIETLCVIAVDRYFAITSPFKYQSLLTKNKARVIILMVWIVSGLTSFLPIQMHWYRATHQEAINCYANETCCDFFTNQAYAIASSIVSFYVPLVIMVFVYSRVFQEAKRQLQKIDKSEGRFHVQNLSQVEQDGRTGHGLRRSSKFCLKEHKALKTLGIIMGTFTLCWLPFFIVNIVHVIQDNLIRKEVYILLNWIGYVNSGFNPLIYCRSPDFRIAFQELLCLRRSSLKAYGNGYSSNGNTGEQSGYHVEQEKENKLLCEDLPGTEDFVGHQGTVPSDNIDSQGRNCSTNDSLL
# Sequence of Cytochrome P450 2C9 (P11712 whole entry): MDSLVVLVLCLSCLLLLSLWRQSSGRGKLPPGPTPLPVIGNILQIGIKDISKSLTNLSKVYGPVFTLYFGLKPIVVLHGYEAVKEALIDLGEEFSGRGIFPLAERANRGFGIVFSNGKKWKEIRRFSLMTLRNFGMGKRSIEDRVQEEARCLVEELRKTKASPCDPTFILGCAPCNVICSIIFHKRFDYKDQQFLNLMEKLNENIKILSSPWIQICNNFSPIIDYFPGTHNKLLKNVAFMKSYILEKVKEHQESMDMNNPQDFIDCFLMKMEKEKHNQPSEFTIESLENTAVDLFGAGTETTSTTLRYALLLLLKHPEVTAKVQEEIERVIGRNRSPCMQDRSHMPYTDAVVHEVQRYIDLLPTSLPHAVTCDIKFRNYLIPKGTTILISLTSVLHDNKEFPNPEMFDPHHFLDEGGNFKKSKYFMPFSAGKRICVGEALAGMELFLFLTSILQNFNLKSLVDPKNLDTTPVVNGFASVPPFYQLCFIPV
# Sequence of Beta Lactamase (Q932Y6 whole entry): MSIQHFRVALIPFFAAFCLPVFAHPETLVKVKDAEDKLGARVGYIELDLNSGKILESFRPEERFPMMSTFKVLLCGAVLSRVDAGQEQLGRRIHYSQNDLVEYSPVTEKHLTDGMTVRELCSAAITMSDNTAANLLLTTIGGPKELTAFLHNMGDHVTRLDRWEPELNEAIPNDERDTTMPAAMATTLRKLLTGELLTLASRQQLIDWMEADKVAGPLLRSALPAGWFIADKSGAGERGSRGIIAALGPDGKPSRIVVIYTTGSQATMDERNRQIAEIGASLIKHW
smiles,measurement,setting,value
CSCC[C@H](NC(=O)OC(C)(C)C)C(=O)N1CCC(C(=O)N[C@@H](C)C(=O)NC(C)c2ccccc2)CC1 (stereo partly drawn),IC50,HEK293,> 67.5 µM (inactive)
same,IC50,[1],> 67.5 µM (inactive)
O=C(C[n+]1cccc(NC(=O)c2ccccc2)c1)c1ccc(NC(=O)c2ccccc2)cc1,EC50,[2],2.76 µM (active)
same,AC50,Cytochrome P450 1A2,17.8 µM (inconclusive)
same,AC50,Cytochrome P450 2C9,5.62 µM (inconclusive)
Cc1ccc(S(=O)(=O)Oc2cccc(N3C(=O)C4CC=CCC4C3=O)c2)cc1 (stereo not drawn),IC50,Leucine aminopeptidase,49.6 µM (active)
same,IC50,HEK293,> 67.5 µM (inactive)
same,IC50,[1],> 67.5 µM (inactive)
CCOC(=O)c1ccc(NC(=O)c2nc(S(=O)(=O)Cc3ccccc3)ncc2Cl)cc1,EC50,[3],> 120 µM (not active)
same,EC50,[4],6.81 µM (active)
same,EC50,[5],10.3 µM (active)
same,EC50,[6],10.8 µM (active)
same,EC50,Streptokinase A,2.11 µM (active)
same,EC50,Streptococcus,10 µM (active)
same,AC50,[7],9.92 µM (active)
same,IC50,CHO,1.95 µM (active)
same,IC50,Beta Lactamase,8.4 µM (active)
same,AC50,INS1,6.7 µM (active)
same,AC50,A-375,36.6 µM (active)
same,AC50,[8],0.572 µM (active)
same,AC50,[9],28.9 µM (active)
same,AC50,[10],7.7 µM (active)
CCN(Cc1ccccc1)S(=O)(=O)c1cc(C(=O)NC(C)C2CC3CCC2C3)ccc1OC (stereo not drawn),EC50,[2],8.76 µM (active)
